The text below walks through data of US10865186B2, “Opioid agonists and uses thereof” (Nektar Therapeutics, priority 2013, dated 2020).

The subject of this experiment is Swiss Albino or CD-1 male mice. Nature of the experiment: Acetic acid writhing (AAW) analgesic assay. The class given is in vivo, mouse. The settings on record: for inhibition in vivo at 30 mg/kg: Mus musculus, 20 min, read-out: AAW % Efficacy. As for the experimental part: Approaches for evaluating analgesic activity of a compound of the present invention in vivo include a “writhing test.” Briefly, the compound to be tested is administered [by, for example, injection (e.g., subcutaneous injection)] to the mouse. Thereafter, a 0.5% acetic acid solution is administered (i.p.) to a mouse and the numbers of writhing responses are counted for twenty minutes. Antinociception is quantified as reduction in the number of writhes respective to vehicle.
An analgesic assay was used to determine whether a given compound can reduce and/or prevent visceral pain in mice. The assay utilizes Swiss Albino or CD-1 male mice (5-10 mice per group), each mouse being approximately 0.015-0.030 kg on the study day. Mice were treated according to standard protocols.
The animal was given an intraperitoneal (IP) injection of an irritant (acetic acid) that induces “writhing” which may include: contractions of the abdomen, twisting and turning of the trunk, arching of the back and the extension of the hindlimbs. Mice are given a single IP injection (0.1 mL/10 g bodyweight) of a 0.5% acetic acid solution. After the injection the animals were returned to their observation enclosure and their behavior was observed. Contractions were counted between 0 and 20 minutes after the injection. The animals were used once. In certain instances, the test articles were administered at multiple doses to determine a dose response curve.
Table 4 provides the results for certain compounds of the present invention that were administered subcutaneously. Table 5 provides the results for certain compounds of the present invention that were administered orally.

Where two headings read alike, the source gives them in different places.

For `COCCOCCOCCOCCOCCOc1cccc(Nc2ccc3c(c2)[C@]2(C)CCN(CC4CC4)[C@H](C3=O)[C@@H]2C)c1` [Compound 8, (2S,6R,11R)-8-((3-(2,5,8,11,14-pentaoxahexadecan-16-yloxy)phenyl)amino)-3-(cyclopropylmethyl)-6,11-dimethyl-3,4,5,6-tetrahydro-2,6-methanobenzo[d]azocin-1(2H)-one], under “subcutaneous, 30 mg/kg”, the “AAW % Efficacy” value came to 100.0%.

Consider `COCCOCCOCCOCCOCCNc1cccc(Nc2ccc3c(c2)[C@]2(C)CCN(CC4CC4)[C@H](C3=O)[C@@H]2C)c1` [Compound 11, (2S,6R,11R)-8-((3-(2,5,8,11,14-pentaoxahexadecan-16-ylamino)phenyl)amino)-3-(cyclopropylmethyl)-6,11-dimethyl-3,4,5,6-tetrahydro-2,6-methanobenzo[d]azocin-1(2H)-one], for which, under “sc, subcutaneous”, the inhibition in vivo at 30 mg/kg is 100%.

`C[C@H]1[C@H]2C(=O)c3ccc(Nc4ccc(NCCOCCOCCOCCOCCOC(F)(F)F)cc4)cc3[C@]1(C)CCN2CC1CC1` [Compound 20, (2S,6R,11R)-3-(cyclopropylmethyl)-6,11-dimethyl-8-((4-((1,1,1-trifluoro-2,5,8,11,14-pentaoxahexadecan-16-yl)amino)phenyl)amino)-3,4,5,6-tetrahydro-2,6-methanobenzo[d]azocin-1(2H)-one]: the inhibition in vivo at 30 mg/kg (oral) came out at 100%.
